Assay: xn = mol fraction of the nth substance listed
Conditions: Liquid, Vibrating tube method

CCC(=O)OC [methyl propanoate] + CCCCCCCCC
Conditions | mass density [kg/m3]
288.15 K, x1 = 0.0638 | 727.45
288.15 K, x1 = 0.0962 | 730.67
288.15 K, x1 = 0.1483 | 736.11
288.15 K, x1 = 0.2104 | 743.23
288.15 K, x1 = 0.2364 | 746.3
288.15 K, x1 = 0.2979 | 754.2
288.15 K, x1 = 0.3526 | 761.75
288.15 K, x1 = 0.4001 | 768.71
288.15 K, x1 = 0.4322 | 773.78
288.15 K, x1 = 0.4985 | 784.9
288.15 K, x1 = 0.5504 | 794.42
288.15 K, x1 = 0.5954 | 803.25
288.15 K, x1 = 0.6449 | 813.66
288.15 K, x1 = 0.693 | 824.65
288.15 K, x1 = 0.7454 | 837.57
288.15 K, x1 = 0.7911 | 849.84
288.15 K, x1 = 0.8391 | 863.79
288.15 K, x1 = 0.8911 | 880.25
288.15 K, x1 = 0.9477 | 900.31
288.15 K, x1 = 1 | 921.21
298.15 K, x1 = 0.0519 | 718.48
298.15 K, x1 = 0.1041 | 723.58
298.15 K, x1 = 0.1448 | 727.66
298.15 K, x1 = 0.1889 | 732.52
298.15 K, x1 = 0.2498 | 739.65
298.15 K, x1 = 0.2949 | 745.26
298.15 K, x1 = 0.3489 | 752.48
298.15 K, x1 = 0.409 | 761.11
298.15 K, x1 = 0.4474 | 767.1
298.15 K, x1 = 0.5033 | 776.37
298.15 K, x1 = 0.6015 | 794.61
298.15 K, x1 = 0.6609 | 807.17
298.15 K, x1 = 0.7048 | 817.21
298.15 K, x1 = 0.751 | 828.64
298.15 K, x1 = 0.7937 | 839.79
298.15 K, x1 = 0.8444 | 854.36
298.15 K, x1 = 0.9002 | 871.96
298.15 K, x1 = 0.9516 | 890.02
298.15 K, x1 = 1 | 909.1
308.15 K, x1 = 0.0618 | 711.31
308.15 K, x1 = 0.1007 | 715.02
308.15 K, x1 = 0.165 | 721.49
308.15 K, x1 = 0.1941 | 724.61
308.15 K, x1 = 0.2601 | 732.22
308.15 K, x1 = 0.2902 | 735.94
308.15 K, x1 = 0.3585 | 744.82
308.15 K, x1 = 0.4102 | 752.25
308.15 K, x1 = 0.4567 | 759.29
308.15 K, x1 = 0.4962 | 765.69
308.15 K, x1 = 0.5559 | 776.15
308.15 K, x1 = 0.5986 | 784.17
308.15 K, x1 = 0.6514 | 794.91
308.15 K, x1 = 0.699 | 805.43
308.15 K, x1 = 0.7476 | 817.03
308.15 K, x1 = 0.796 | 829.48
308.15 K, x1 = 0.8477 | 844.14
308.15 K, x1 = 0.8947 | 858.8
308.15 K, x1 = 0.9504 | 877.94
308.15 K, x1 = 1 | 896.91
318.15 K, x1 = 0.0587 | 703.05
318.15 K, x1 = 0.1139 | 708.17
318.15 K, x1 = 0.141 | 710.78
318.15 K, x1 = 0.2148 | 718.51
318.15 K, x1 = 0.2624 | 723.9
318.15 K, x1 = 0.3145 | 730.23
318.15 K, x1 = 0.3621 | 736.39
318.15 K, x1 = 0.394 | 740.75
318.15 K, x1 = 0.4491 | 748.79
318.15 K, x1 = 0.4889 | 755.06
318.15 K, x1 = 0.5458 | 764.61
318.15 K, x1 = 0.6011 | 774.72
318.15 K, x1 = 0.6538 | 785.15
318.15 K, x1 = 0.6972 | 794.52
318.15 K, x1 = 0.7464 | 805.96
318.15 K, x1 = 0.7904 | 816.99
318.15 K, x1 = 0.8414 | 831.04
318.15 K, x1 = 0.8899 | 845.62
318.15 K, x1 = 0.9498 | 865.72
318.15 K, x1 = 1 | 884.71
328.15 K, x1 = 0.0562 | 694.8
328.15 K, x1 = 0.0989 | 698.61
328.15 K, x1 = 0.1503 | 703.45
328.15 K, x1 = 0.1813 | 706.43
328.15 K, x1 = 0.194 | 707.71
328.15 K, x1 = 0.2651 | 715.48
328.15 K, x1 = 0.3128 | 721.06
328.15 K, x1 = 0.3582 | 726.72
328.15 K, x1 = 0.4509 | 739.58
328.15 K, x1 = 0.5045 | 747.9
328.15 K, x1 = 0.5545 | 756.22
328.15 K, x1 = 0.6005 | 764.42
328.15 K, x1 = 0.6523 | 774.55
328.15 K, x1 = 0.7484 | 795.44
328.15 K, x1 = 0.7963 | 807.38
328.15 K, x1 = 0.8469 | 821.01
328.15 K, x1 = 0.9004 | 836.96
328.15 K, x1 = 0.9501 | 853.63
328.15 K, x1 = 1 | 872.22

Reference: the NIST ThermoML archive (doi:10.1021/je4009415)
